According to patent EP4596574A1, “GLP-1/GCG/GIP TRIPLE-RECEPTOR AGONIST AND USE THEREOF” (Sunshine Lake Pharma Co., Ltd., priority 2022, dated 2024):
Starred links: 1 amine or outer side, 2 acyl side, 3 side chain; linkers in the order of their positions; H or OH if unused. Non-standard residues stand in square brackets, D forms with d. Residues, ends and D or L forms follow the SMILES beside them. Groups on a side chain read outwards from the residue. *: point of attachment. C18 diacid = O=C(O)CCCCCCCCCCCCCCCCC(=O)*; αMePhe(2-F) = C[C@](N)(Cc1ccccc1F)C(=O)O; γGlu = O=C(O)[C@H](CCC(=O)[*:2])N[*:1]; AEEA = NCCOCCOCC(=O)O; Aib = CC(C)(N)C(=O)O

What was measured:
Assay type in all cases: cell-based
GLP-1R = target: T1, GLP-1R (Homo sapiens, UniProt P43220); assay: In vitro cell activity, cAMP production in HEK293 cells expressing GLP-1R; conditions: HEK293-GLP-1R cells, cAMP; read-out: GLP-1R (EC50)
T1 construct: expressed in transfected cells; host or cells: HEK293 (HEK293-GLP-1R)
T1 sequence (P43220 24-463, species assumed): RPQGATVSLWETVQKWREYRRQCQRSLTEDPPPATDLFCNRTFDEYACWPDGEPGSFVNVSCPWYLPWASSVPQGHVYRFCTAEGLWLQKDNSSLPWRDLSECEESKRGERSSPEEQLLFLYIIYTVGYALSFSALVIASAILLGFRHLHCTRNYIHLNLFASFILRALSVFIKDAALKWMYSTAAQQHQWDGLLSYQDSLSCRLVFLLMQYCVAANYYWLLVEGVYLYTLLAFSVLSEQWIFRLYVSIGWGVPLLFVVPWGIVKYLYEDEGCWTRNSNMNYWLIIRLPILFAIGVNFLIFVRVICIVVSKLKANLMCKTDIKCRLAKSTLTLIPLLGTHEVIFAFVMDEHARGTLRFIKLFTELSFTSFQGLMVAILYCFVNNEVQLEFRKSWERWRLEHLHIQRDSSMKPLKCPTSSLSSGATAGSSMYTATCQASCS
Method in brief: (§1)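 Cells were plated at 4×10^5 cells/mL, and detection reagents (cAMP-d2, anti-cAMP cryptate, 1:1) were incubated 1 h at room temperature in the dark or overnight at 4 °C.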

GCGR = target: T2, GCGR (Homo sapiens, UniProt P47871); assay: In vitro cell activity, cAMP production in HEK293 cells expressing GCGR; conditions: HEK293-GCGR cells, cAMP; read-out: GCGR (EC50)
T2 construct: expressed in transfected cells; host or cells: HEK293 (HEK293-GCGR)
T2 sequence (P47871 26-477, species assumed): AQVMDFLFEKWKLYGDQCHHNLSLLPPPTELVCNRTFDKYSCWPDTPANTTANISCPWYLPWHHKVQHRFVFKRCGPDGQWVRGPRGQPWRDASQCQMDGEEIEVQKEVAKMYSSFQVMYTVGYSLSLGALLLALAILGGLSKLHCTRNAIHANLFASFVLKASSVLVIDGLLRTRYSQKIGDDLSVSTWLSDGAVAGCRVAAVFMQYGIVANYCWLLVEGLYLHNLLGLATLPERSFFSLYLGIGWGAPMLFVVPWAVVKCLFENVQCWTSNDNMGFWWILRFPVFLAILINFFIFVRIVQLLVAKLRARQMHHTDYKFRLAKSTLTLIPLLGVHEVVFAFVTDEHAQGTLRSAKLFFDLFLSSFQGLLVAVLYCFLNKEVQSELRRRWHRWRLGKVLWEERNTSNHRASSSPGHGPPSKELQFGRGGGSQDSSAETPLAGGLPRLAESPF
Method in brief: as §1

GIPR = target: T3, GIPR (Homo sapiens, UniProt P48546); assay: In vitro cell activity, cAMP production in HEK293 cells expressing GIPR; conditions: HEK293-GIPR cells, cAMP; read-out: GIPR (EC50)
T3 construct: expressed in transfected cells; host or cells: HEK293 (HEK293-GIPR)
T3 sequence (P48546 22-466): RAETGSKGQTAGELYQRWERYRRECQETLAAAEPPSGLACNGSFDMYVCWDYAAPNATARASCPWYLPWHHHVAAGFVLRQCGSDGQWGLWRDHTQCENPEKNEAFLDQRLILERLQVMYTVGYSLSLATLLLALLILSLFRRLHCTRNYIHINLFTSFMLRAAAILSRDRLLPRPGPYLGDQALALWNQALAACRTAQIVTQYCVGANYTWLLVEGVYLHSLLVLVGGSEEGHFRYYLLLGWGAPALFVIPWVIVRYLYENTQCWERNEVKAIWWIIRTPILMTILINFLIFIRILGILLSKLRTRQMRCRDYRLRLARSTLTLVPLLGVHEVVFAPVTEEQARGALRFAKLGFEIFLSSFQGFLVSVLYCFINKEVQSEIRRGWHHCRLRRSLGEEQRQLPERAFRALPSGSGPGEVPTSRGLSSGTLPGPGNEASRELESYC
Method in brief: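 cAMP accumulation is quantified by homogeneous TR-FRET (cAMP-d2 plus anti-cAMP cryptate) in GIPR-expressing HEK293 cells seeded from a 4×10^5 cells/mL suspension and treated with compound. The signal ratio is plotted against concentration and fitted to a four-parameter curve to give EC50.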

| Compound | EC50 (GLP-1R) | EC50 (GCGR) | EC50 (GIPR) |
| --- | --- | --- | --- |
| CC[C@H](C)[C@H](NC(=O)[C@H](Cc1ccccc1)NC(=O)[C@H](C)NC(=O)[C@H](CCCNC(=N)N)NC(=O)[C@H](CCC(N)=O)NC(=O)[C@H](CCCNC(=N)N)NC(=O)[C@H](CCCCNC(=O)COCCOCCNC(=O)CC[C@H](NC(=O)CCCCCCCCCCCCCCCCC(=O)O)C(=O)O)NC(=O)[C@H](CCC(=O)O)NC(=O)[C@H](CC(=O)O)NC(=O)[C@H](CC(C)C)NC(=O)[C@H](CC(C)C)NC(=O)[C@@H](NC(=O)[C@H](CO)NC(=O)[C@H](Cc1ccc(O)cc1)NC(=O)[C@H](CC(=O)O)NC(=O)[C@H](CO)NC(=O)[C@@H](NC(=O)[C@](C)(Cc1ccccc1F)NC(=O)[C@@H](NC(=O)CNC(=O)[C@H](CCC(N)=O)NC(=O)C(C)(C)NC(=O)[C@@H](N)Cc1ccc(O)cc1)[C@@H](C)O)[C@@H](C)O)[C@@H](C)CC)C(=O)N[C@@H](CCC(=O)O)C(=O)N[C@@H](Cc1ccc(O)cc1)C(=O)N[C@@H](CC(C)C)C(=O)N[C@@H](CC(C)C)C(=O)N[C@@H](CCC(=O)O)C(=O)NCC(=O)NCC(=O)N1CCC[C@H]1C(=O)N[C@@H](CO)C(=O)N[C@@H](CO)C(=O)NCC(=O)N[C@@H](C)C(=O)N1CCC[C@H]1C(=O)N1CCC[C@H]1C(=O)N1CCC[C@H]1C(=O)N[C@@H](CO)C(=O)O [HEC-PT124] | 0.228 nM | 0.332 nM | 0.152 nM |
| CC[C@H](C)[C@H](NC(=O)[C@H](CO)NC(=O)[C@H](Cc1ccc(O)cc1)NC(=O)[C@H](CC(=O)O)NC(=O)[C@H](CO)NC(=O)[C@@H](NC(=O)[C@](C)(Cc1ccccc1F)NC(=O)[C@@H](NC(=O)CNC(=O)[C@H](CCC(N)=O)NC(=O)C(C)(C)NC(=O)[C@@H](N)Cc1ccc(O)cc1)[C@@H](C)O)[C@@H](C)O)C(=O)N[C@@H](CC(C)C)C(=O)N[C@@H](CCCCNC(=O)COCCOCCNC(=O)CC[C@H](NC(=O)CCCCCCCCCCCCCCCCC(=O)O)C(=O)O)C(=O)N[C@@H](CC(=O)O)C(=O)N[C@@H](CCCNC(=N)N)C(=O)N[C@@H](CCCNC(=N)N)C(=O)N[C@@H](C)C(=O)N[C@@H](CCC(N)=O)C(=O)N[C@@H](CCC(N)=O)C(=O)N[C@@H](C)C(=O)N[C@@H](Cc1ccccc1)C(=O)N[C@H](C(=O)N[C@@H](CCC(=O)O)C(=O)N[C@@H](Cc1ccc(O)cc1)C(=O)N[C@@H](CC(C)C)C(=O)N[C@@H](CC(C)C)C(=O)N[C@@H](C)C(=O)NCC(=O)NCC(=O)N1CCC[C@H]1C(=O)N[C@@H](CO)C(=O)N[C@@H](CO)C(=O)NCC(=O)N[C@@H](C)C(=O)N1CCC[C@H]1C(=O)N1CCC[C@H]1C(=O)N1CCC[C@H]1C(=O)N[C@@H](CO)C(=O)O)C(C)C [HEC-PT148] (H-Y[Aib]QGT[αMePhe(2-F)]TSDYSILK([AEEA-γGlu-C18 diacid])DRRAQQAFVEYLLAGGPSSGAPPPS-OH) | 0.0741 nM | 0.162 nM | 0.312 nM |
| CC[C@H](C)[C@H](NC(=O)[C@H](CO)NC(=O)[C@H](Cc1ccc(O)cc1)NC(=O)[C@H](CC(=O)O)NC(=O)[C@H](CO)NC(=O)[C@@H](NC(=O)[C@](C)(Cc1ccccc1F)NC(=O)[C@@H](NC(=O)CNC(=O)[C@H](Cc1c[nH]cn1)NC(=O)C(C)(C)NC(=O)[C@@H](N)Cc1ccc(O)cc1)[C@@H](C)O)[C@@H](C)O)C(=O)N[C@@H](CC(C)C)C(=O)N[C@@H](CC(C)C)C(=O)N[C@@H](CC(=O)O)C(=O)N[C@@H](CCC(=O)O)C(=O)N[C@@H](CCCCNC(=O)COCCOCCNC(=O)CC[C@H](NC(=O)CCCCCCCCCCCCCCCCC(=O)O)C(=O)O)C(=O)N[C@@H](CCCNC(=N)N)C(=O)N[C@@H](CCC(N)=O)C(=O)NC(C)(C)C(=O)N[C@@H](CCC(=O)O)C(=O)N[C@@H](Cc1ccccc1)C(=O)N[C@H](C(=O)N[C@@H](CCC(=O)O)C(=O)N[C@@H](Cc1c[nH]c2ccccc12)C(=O)N[C@@H](CC(C)C)C(=O)N[C@@H](CC(C)C)C(=O)N[C@@H](C)C(=O)NCC(=O)NCC(=O)N1CCC[C@H]1C(=O)N[C@@H](CO)C(=O)N[C@@H](CO)C(=O)NCC(=O)N[C@@H](C)C(=O)N1CCC[C@H]1C(=O)N1CCC[C@H]1C(=O)N1CCC[C@H]1C(=O)N[C@@H](CO)C(N)=O)[C@@H](C)CC [HEC-PT109] | 0.14 nM | 0.707 nM | 0.052 nM |
| CC[C@H](C)[C@H](NC(=O)[C@H](CCCCN)NC(=O)[C@H](CC(=O)O)NC(=O)[C@H](CCCCNC(=O)COCCOCCNC(=O)CC[C@H](NC(=O)CCCCCCCCCCCCCCCCC(=O)O)C(=O)O)NC(=O)[C@H](CC(C)C)NC(=O)[C@@H](NC(=O)[C@H](CO)NC(=O)[C@H](Cc1ccc(O)cc1)NC(=O)[C@H](CC(=O)O)NC(=O)[C@H](CO)NC(=O)[C@@H](NC(=O)[C@](C)(Cc1ccccc1F)NC(=O)[C@@H](NC(=O)CNC(=O)[C@H](CCC(N)=O)NC(=O)C(C)(C)NC(=O)[C@@H](N)Cc1ccc(O)cc1)[C@@H](C)O)[C@@H](C)O)[C@@H](C)CC)C(=O)N[C@@H](C)C(=O)N[C@@H](CCC(N)=O)C(=O)N[C@@H](CCCCN)C(=O)N[C@@H](C)C(=O)N[C@@H](Cc1ccccc1)C(=O)N[C@H](C(=O)N[C@@H](CCC(=O)O)C(=O)N[C@@H](Cc1ccc(O)cc1)C(=O)N[C@@H](CC(C)C)C(=O)N[C@@H](CC(C)C)C(=O)N[C@@H](C)C(=O)NCC(=O)NCC(=O)N1CCC[C@H]1C(=O)N[C@@H](CO)C(=O)N[C@@H](CO)C(=O)NCC(=O)N[C@@H](C)C(=O)N1CCC[C@H]1C(=O)N1CCC[C@H]1C(=O)N1CCC[C@H]1C(=O)N[C@@H](CO)C(N)=O)[C@@H](C)CC [HEC-PT140] (H-Y[Aib]QGT[αMePhe(2-F)]TSDYSILK([AEEA-γGlu-C18 diacid])DKIAQKAFIEYLLAGGPSSGAPPPS-NH2) | 0.152 nM | 0.272 nM | 0.0543 nM |
| CC[C@H](C)[C@H](NC(=O)[C@H](Cc1ccccc1)NC(=O)[C@H](C)NC(=O)C(C)(C)NC(=O)[C@H](CCC(N)=O)NC(=O)[C@H](CCCNC(=N)N)NC(=O)[C@@H](NC(=O)[C@H](CCCCN)NC(=O)[C@H](CC(=O)O)NC(=O)[C@H](CCCCNC(=O)COCCOCCNC(=O)CC[C@H](NC(=O)CCCCCCCCCCCCCCCCC(=O)O)C(=O)O)NC(=O)[C@H](CC(C)C)NC(=O)[C@@H](NC(=O)[C@H](CO)NC(=O)[C@H](Cc1ccc(O)cc1)NC(=O)[C@H](CC(=O)O)NC(=O)[C@H](CO)NC(=O)[C@@H](NC(=O)[C@](C)(Cc1ccccc1F)NC(=O)[C@@H](NC(=O)CNC(=O)[C@H](CCC(N)=O)NC(=O)C(C)(C)NC(=O)[C@@H](N)Cc1ccc(O)cc1)[C@@H](C)O)[C@@H](C)O)[C@@H](C)CC)[C@@H](C)CC)C(=O)N[C@@H](CCC(=O)O)C(=O)N[C@@H](Cc1ccc(O)cc1)C(=O)N[C@@H](CC(C)C)C(=O)N[C@@H](CC(C)C)C(=O)N[C@@H](C)C(=O)NCC(=O)NCC(=O)N1CCC[C@H]1C(=O)N[C@@H](CO)C(=O)N[C@@H](CO)C(=O)NCC(=O)N[C@@H](C)C(=O)N1CCC[C@H]1C(=O)N1CCC[C@H]1C(=O)N1CCC[C@H]1C(=O)N[C@@H](CO)C(N)=O [HEC-PT145] (H-Y[Aib]QGT[αMePhe(2-F)]TSDYSILK([AEEA-γGlu-C18 diacid])DKIRQ[Aib]AFIEYLLAGGPSSGAPPPS-NH2) | 0.126 nM | 0.066 nM | 0.0316 nM |
| CC[C@H](C)[C@H](NC(=O)[C@H](Cc1ccccc1)NC(=O)[C@H](CCC(=O)O)NC(=O)[C@H](CCCNC(=N)N)NC(=O)[C@H](C)NC(=O)[C@H](CCCNC(=N)N)NC(=O)[C@H](CCCCNC(=O)COCCOCCNC(=O)CC[C@H](NC(=O)CCCCCCCCCCCCCCCCCCC(=O)O)C(=O)O)NC(=O)[C@H](CCC(=O)O)NC(=O)[C@H](CC(=O)O)NC(=O)[C@H](CC(C)C)NC(=O)[C@H](CC(C)C)NC(=O)[C@@H](NC(=O)[C@H](CO)NC(=O)[C@H](Cc1ccc(O)cc1)NC(=O)[C@H](CC(=O)O)NC(=O)[C@H](CO)NC(=O)[C@@H](NC(=O)[C@](C)(Cc1ccccc1F)NC(=O)[C@@H](NC(=O)CNC(=O)[C@H](Cc1c[nH]cn1)NC(=O)C(C)(C)NC(=O)[C@@H](N)Cc1ccc(O)cc1)[C@@H](C)O)[C@@H](C)O)[C@@H](C)CC)C(=O)N[C@@H](CCC(=O)O)C(=O)N[C@@H](Cc1c[nH]c2ccccc12)C(=O)N[C@@H](CC(C)C)C(=O)N[C@@H](CC(C)C)C(=O)N[C@@H](CCC(=O)O)C(=O)NCC(=O)NCC(=O)N1CCC[C@H]1C(=O)N[C@@H](CO)C(=O)N[C@@H](CO)C(=O)NCC(=O)N[C@@H](C)C(=O)N1CCC[C@H]1C(=O)N1CCC[C@H]1C(=O)N1CCC[C@H]1C(=O)N[C@@H](CO)C(=O)O [HEC-PT89] | 0.172 nM | 0.0419 nM | 0.214 nM |
